Literature values in patent publication US5603954A (priority 1995, dated 1997).

Legend:
[1] = test system: patients with chronic peripheral arterial disease
[2] = metabolites appear after dosing in the plasma

CC(=O)CCCCn1c(=O)c2c(ncn2C)n(C)c1=O [pentoxifylline, 3,7-dihydro-3,7-dimethyl-1-(5-oxohexyl)-1H-purine-2,6-dione]
blood flow to the affected microcirculation [1]: increases the blood flow
tissue oxygenation [1]: enhances tissue oxygenation
first-pass effect [2]: undergoes a first-pass effect
